The assay has as its target T1, FLuc-C-HiBiT (Photinus pyralis, UniProt P08659).
T1 construct: firefly luciferase with C-terminal HiBiT tag, E. coli expressed
The experiment in a line: biochemical. As to conditions: enzyme activity, 10 uM ATP; read-out: IC50 or SDR50 (mM) / FLuc E.

This passage reports IC50 results from paper PMC12064818, “A general assay platform to study protein pharmacology using ligand-dependent structural dynamics” (Nature Communications, 2025).

T1 sequence (P08659 whole entry, looked up): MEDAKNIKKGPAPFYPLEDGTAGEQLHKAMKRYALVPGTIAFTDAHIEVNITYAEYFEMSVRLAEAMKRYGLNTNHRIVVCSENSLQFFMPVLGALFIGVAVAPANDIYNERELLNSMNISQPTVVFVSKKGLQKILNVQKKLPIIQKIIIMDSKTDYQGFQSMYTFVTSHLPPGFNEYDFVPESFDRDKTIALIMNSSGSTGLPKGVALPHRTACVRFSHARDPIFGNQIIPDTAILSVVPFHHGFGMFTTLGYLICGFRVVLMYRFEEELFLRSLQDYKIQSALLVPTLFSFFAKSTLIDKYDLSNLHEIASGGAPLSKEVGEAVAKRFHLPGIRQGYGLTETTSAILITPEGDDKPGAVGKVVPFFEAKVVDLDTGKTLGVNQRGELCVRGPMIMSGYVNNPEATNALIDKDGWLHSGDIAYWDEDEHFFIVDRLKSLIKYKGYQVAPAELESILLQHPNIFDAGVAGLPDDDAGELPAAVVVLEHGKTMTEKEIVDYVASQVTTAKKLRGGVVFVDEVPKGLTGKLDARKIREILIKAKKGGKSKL

Turning to `Cc1ccc(NC(=O)N2CCC(CCNC(=O)c3ccc(F)cc3)CC2)cc1F` [NCGC00425047-01], the IC50 came to 11.1 µM. `Cc1ccc(-c2cc3c(=O)n(CCNC(=O)c4nccc5ccccc45)ccn3n2)c(C)c1` [NCGC00456974-01]: the IC50 was found to be 8.81 µM. As to `CC(=O)N[C@@H]1C=C[C@@H](c2c(C)nn(-c3ccc(C(F)(F)F)cc3)c2C)C1` [NCGC00400353-01], the IC50 is 16.1 µM. With `Cn1cc(-c2cnc(Nc3ccc(N4CCOCC4)cc3)c3c2CCO3)cn1` [NCGC00412818-01], the IC50 turned out to be 14.3 µM. `COc1cccc(-n2nnc(-c3nc(-c4ccccc4F)no3)c2C)c1` [NCGC00128608-01]: the IC50 is 5.56 µM. For the molecule `COc1ccc(CNC(=O)c2ccc3c(c2)N=C(C)c2c(C)ccc(C)c2S3)cc1` [NCGC00112026-02], the IC50 was greater than 30 µM.

Turning to `O=C(Nc1ccccc1)c1nc2c(o1)CCN(Cc1ccccc1)CC2` [NCGC00413286-01], the IC50 is 4.53 µM.

For `COc1ccc(-c2cc(N3CCCC(NC(=O)c4c[nH]c5ccccc45)C3)[nH]n2)cc1` (stereo not drawn) [NCGC00437686-01], the IC50 is 11.1 µM. On to `COc1ccc(-c2nc3ncccc3[nH]2)cc1` [NCGC00375673-01], for which the IC50 stood at 16 µM. Under `CCNC(=O)C1C(c2cccc(NC(=O)c3ccc(OC)cc3)c2)OC(=O)N1Cc1ccc(C)cc1` (stereo not drawn) [NCGC00474207-01] stands 3.94 µM; under `O=C(COc1ccccc1F)Nc1ccc(-c2nc3ccccc3s2)cc1` [NCGC00118994-02], greater than 30 µM; under `Cc1ccc2nc(-c3ccc(N)cc3)sc2c1[S+](=O)([O-])O` [NCGC00091147-01], 2.48 µM. In the case of `C=CCNC(=O)c1cccc2c(C)nnn12` [NCGC00477166-01] it was greater than 30 µM. Take `Fc1ccc(-c2cc3c(cn2)CN(Cc2ccncc2)CCN3)cc1Cl` [NCGC00411256-01]: the IC50 turned out to be 18 µM.

As to `Cc1cccc(-n2ncc3c(N4CCCC(C)C4)ncnc32)c1` (stereo not drawn) [NCGC00138848-01], the IC50 amounted to 0.7 µM. Take `COc1cc(NC(=O)Nc2cccc(-c3ccc(N4CCOCC4)nn3)c2)cc(OC)c1` [NCGC00427592-01]: the IC50 is 1.76 µM.

Consider `CSCC(=O)N[C@H]1CCN2C(=O)c3cc(/C=C/c4ccccc4)ccc3NC(=O)[C@H]12` [NCGC00421159-01], for which the IC50 worked out at 14.3 µM. In the case of `COc1cccc(-c2ncc3c(n2)OCCN(Cc2ccccc2)C3=O)c1` [NCGC00413619-01] it was 12.8 µM. For the molecule `CCN(CC)C(=O)N1CCOC(c2ccc3cc(OC)ccc3c2)C1` (stereo not drawn) [NCGC00431059-01], the IC50 was 5.56 µM.

As to `O=C(Nc1cc(Cl)cc(Cl)c1)c1ccn2nccc2c1` [NCGC00477139-01], the IC50 worked out at 18 µM. Under `O=C1c2cnc(-c3ccsc3)nc2OCCN1c1ccccc1` [NCGC00413608-01] stands 18 µM. Consider `COc1ccccc1-c1nc2cc(NC(=O)c3ccccc3Cl)ccc2o1` [NCGC00098320-01], for which the IC50 is 11.1 µM. Take `COCCNC(=O)[C@@H](C)C1CC[C@@]2(C)Cc3sc(CSc4ccccc4)nc3[C@@H](C)[C@@H]2[C@H]1O` (stereo partly drawn) [NCGC00391430-01]: the IC50 was found to be 11.1 µM.

On to `COc1ccc(-c2cnc(Nc3ccccc3)c3c2CCO3)cn1` [NCGC00412779-01], for which the IC50 turned out to be 18 µM. Under `COC(=O)c1c(-c2cccs2)csc1NC(=O)c1ccc(C)cc1` [NCGC00118339-01] stands 15.7 µM. Under `Cc1ccc(-c2cc3c(=O)n(CCNC(=O)c4ccc(N(C)C)cc4)ccn3n2)c(C)c1` [NCGC00456986-01] stands 3.13 µM; under `Cc1cn2nc(C(=O)Nc3ccc4c(c3)OCCO4)cc2c(N(C)Cc2ccccc2)n1` [NCGC00454161-01], 9.89 µM; under `CN(C)c1cccc(C(=O)NC2CCN(c3cc(-c4ccc(Cl)cc4)n[nH]3)CC2)c1` [NCGC00437038-01], 6.24 µM.

With `O=C(NCc1ccc(F)cc1)Nc1cccc(-c2ccc(N3CCOCC3)nn2)c1` [NCGC00427604-01], the IC50 came to 1.76 µM. Turning to `O=C1CCc2cc(NC(=O)c3n[nH]c4ccccc34)ccc2N1` [NCGC00425473-01], the IC50 turned out to be 3.13 µM. Regarding `COc1ccccc1-c1nc(-c2cccc(C(=O)O)c2)no1` [NCGC00168765-01], the IC50 was found to be 0.00624 µM. As for `Cn1ccnc1CN1CCc2nc(C(=O)Nc3ccccc3)oc2CC1` [NCGC00413360-01], the IC50 was 20.2 µM. In the case of `CN(C)c1ccc(NC(=O)c2ccc3c(c2)N(C)C2CCCCN2C3=O)cc1` (stereo not drawn) [NCGC00452413-01] it was 11.1 µM; in that of `O=C(O)c1ccnc(-c2ccnc(NCCN3CCCCC3=O)n2)c1` [NCGC00438481-01], 11.1 µM.

Turning to `CC(=O)c1nn(-c2ccc(OC(F)(F)F)cc2)nc1Nc1ccccc1` [NCGC00116600-01], the IC50 came out at 0.7 µM. Consider `Cc1c(-c2ccccc2F)[nH]c2ccc(CNC(=O)C3C=CCN3)cc12` (stereo not drawn) [NCGC00438963-01], for which the IC50 worked out at 12.4 µM. Consider `Brc1ccccc1-n1ncc2c1ncn1nc(Cc3ccccc3)nc21` [NCGC00115124-01], for which the IC50 was greater than 30 µM.

`COc1cccc(-c2ncc3c(n2)OCCN(c2ccccc2)C3=O)c1` [NCGC00413522-01]: the IC50 amounted to 1.8 µM. In the case of `Cc1cc(F)ccc1OC1(C(=O)O)CCN(c2ncnc3[nH]cnc23)CC1` [NCGC00438333-01] it was greater than 30 µM; in that of `CN1CCN(C(=O)COc2ccc(-c3nc4ccccc4s3)cc2)CC1` [NCGC00042506-01], 0.495 µM; in that of `Cc1nc(C)c(C(=O)N2CCC(Oc3ccc(-c4noc(-c5ccccc5)n4)cc3)C2)s1` (stereo not drawn) [NCGC00440995-01], 11.1 µM. Under `CC(C)n1cc(-c2cc(C(=O)N3CCC(C)(C)C3)c3ccc(F)cc3n2)cn1` [NCGC00430819-01] stands 4.95 µM. Under `COc1ccc(-c2noc([C@@H]3C[C@H](NCc4ccccn4)CN3C)n2)cc1` [NCGC00395774-01] stands 20.2 µM; under `Cc1ccc2nc(-c3ccc(/N=N/c4cc(S(=O)(=O)O)c5ccccc5c4O)cc3)sc2c1S(=O)(=O)O` [NCGC00161973-01], 12.4 µM.

Regarding `Cc1ccc(C2Cn3nnc(C(=O)N4CCC(C(=O)NCc5ccncc5)CC4)c3CO2)cc1` (stereo not drawn) [NCGC00449555-01], the IC50 amounted to 11.1 µM. Under `Cc1cn2nc(C(=O)Nc3ccc(C(=O)N4CCCC4)cc3)cc2c(=O)[nH]1` [NCGC00453923-01] stands 9.89 µM; under `Cc1c(NC(=O)c2cccc(Cl)c2Cl)cccc1-c1nc2ccccc2s1` [NCGC00595034-01], greater than 30 µM; under `Cc1ccc(NC(=O)Nc2ccc(C)n(CC(=O)NCCC(C)C)c2=O)cc1` [NCGC00430794-01], 1.11 µM. Under `COc1ccc(-c2ccc3c(c2)C(=O)N2CC[C@H](NC(=O)c4cccc(F)c4)[C@H]2C(=O)N3)cc1` [NCGC00399389-01] stands 9.89 µM; under `O=C(O)CCC1CCN(c2cc(NC3CC3)ncn2)CC1` [NCGC00432803-01], 3.13 µM.

On to `COc1ccc(-c2cc(N3CCCC(NC(=O)c4cccs4)C3)[nH]n2)cc1` (stereo not drawn) [NCGC00437586-01], for which the IC50 came out at 9.89 µM. As for `O=C(Nc1c(C(=O)O)oc2ccccc12)c1ccc(C(F)(F)F)cc1` [NCGC00141808-01], the IC50 amounted to 9.89 µM. In the case of `O=C(NCCc1ccccc1Cl)c1ccc2c(c1)nc1n2CCOC1` [NCGC00133432-01] it was 7 µM. In the case of `COc1ccc(CNC(=O)Nc2cccc(-c3ccc(N4CCOCC4)nn3)c2)cc1` [NCGC00427608-01] it was 1.97 µM; in that of `COc1cccc(CC(=O)NCCn2ccn3nc(-c4ccc(C)c(C)c4)cc3c2=O)c1` [NCGC00457016-01], 11.1 µM. Regarding `O=C(Nc1ccc(O)c(-c2nc3ccccc3s2)c1)c1cc2ccccc2o1` [NCGC00595541-01], the IC50 was greater than 30 µM.

Consider `Cc1ccc(NC(=O)Nc2ccc(C)n(CC(=O)NCC(C)C)c2=O)cc1` [NCGC00430796-01], for which the IC50 worked out at 1.11 µM. Regarding `CC(C)c1nc2c(c(-c3ccc(O)cc3)n1)CN(Cc1ccccc1)CC2` [NCGC00480075-01], the IC50 is greater than 30 µM.

`CC(=O)c1ccc(NC(=O)CCc2c(C)nc3cc(-c4ccc(Cl)cc4)nn3c2C)cc1` [NCGC00110026-01]: the IC50 came to 7.85 µM.

In the case of `CCCCOc1nc(N)c2[nH]c(=O)n(Cc3cccc(CC(=O)OC)c3)c2n1` [NCGC00508895-01], the IC50 was greater than 30 µM. For the molecule `CCCCN(C)[S+](=O)([O-])c1ccc(C(=O)Nc2ccc(-c3nc4ccc(C)cc4s3)cc2)cc1` [NCGC00134689-02], the IC50 was greater than 30 µM. Under `Cc1ccc(Cl)cc1NC(=O)c1cc(-c2ccc3c(c2)OCCO3)on1` [NCGC00118917-01] stands 1.76 µM; under `O=C(O)c1cccc(-c2noc(-c3ccccc3F)n2)c1` [NCGC00168759-10], 0.00624 µM. On to `CCc1noc(-c2nc(-c3ccccc3C)no2)n1` [NCGC00450081-01], for which the IC50 was greater than 30 µM. Regarding `O=C(O)C1(Oc2ccc3ccccc3c2)CCN(c2ncnc3[nH]cnc23)CC1` [NCGC00441641-01], the IC50 was greater than 30 µM. For `CCOC(=O)c1ccc(NC(=O)c2csc3c2CCCC3)cc1` [NCGC00112858-01], the IC50 turned out to be 15.7 µM.

Take `COc1ccccc1NC(=O)Nc1cccc(-c2ccc(N3CCOCC3)nn2)c1` [NCGC00427580-01]: the IC50 came to 3.13 µM.

On to `CC(CCn1cccn1)NC(=O)c1csc2nc(-c3ccc(C(F)(F)F)cc3)cn12` (stereo not drawn) [NCGC00427469-01], for which the IC50 worked out at 9.89 µM. With `Fc1ccc(Nc2ncc(-c3cccnc3)c3c2OCC3)cc1` [NCGC00412761-01], the IC50 came out at 11.4 µM.

As to `CCOC(=O)C1CCCN(c2ncnc3c2cnn3-c2ccc(C)c(Cl)c2)C1` (stereo not drawn) [NCGC00139179-01], the IC50 was greater than 30 µM. In the case of `Nc1ncnc2c1ncn2[C@@H]1O[C@H](CO)[C@@H](O)[C@@H]1O` [NCGC00178869-10], the IC50 was greater than 30 µM. Consider `C[S+](=O)([O-])CCn1ncc2cc(OCc3cccc(-c4ccc(F)cc4)c3)ccc21` [NCGC00418040-01], for which the IC50 worked out at 16.1 µM. In the case of `COc1ccccc1OC(C)C(=O)Nc1cccc(-c2nc3ccccc3s2)c1` (stereo not drawn) [NCGC00119157-01] it was 8.81 µM; in that of `O=C(Nc1cccc(-c2nc3ccccc3s2)c1)c1cc2ccccc2oc1=O` [NCGC00688715-01], greater than 30 µM. In the case of `CC(=O)Nc1cccc(-c2cc3c(cn2)CN(Cc2ccccc2)CCN3)c1` [NCGC00411143-01] it was 16.1 µM.
